Reference: patent US20080287525A1, “Pharmaceuticals for treating or preventing oral diseases” (HAWLEY & HAZEL (BVI) COMPANY LIMITED, priority 2007, published 2008)

Key:
[1] = system: Actinomyces naeslundii (A. n) ATCC 12104; assay: Micro-dilution MIC test, A. n; assay type: cell-based; conditions: 37 °C, 18-24 h, unit not given, method gives concentrations in mg/L (ppm)
Method: (§1) A single colony was picked from the Trypticase Digested Soybean peptone agar blood plate (TSA5B) of ordinarily stored bacteria species and used to inoculate corresponding broth culture medium, which was cultivated in a microaerobic environment (P.g needs anaerobic cultivation) with 95% air, 5% CO2 at 37.0° C.±1.0° C., wherein S.m and S.sa were cultivated for 18-24 h, and the remaining five species were cultivated for 40-48 h. Then corresponding broth cultivate medium was used to adjust the turbidity of the bacteria suspension to 0.5 McFarland standard, equivalent to 1.0×10^8 CFU/mL.
(§2) The operating steps were:
(§3) a. Preparation of the stock solution of antibacterial pharmaceutical: 1% stock solution of various antibacterial pharmaceuticals was prepared with 100% pure ethanol as solvent. The prepared stock solution was filtered to eliminate bacteria, and was distributed into small portions to be used.
(§4) b. Range of measured concentration: the present experiment used 250 ppm as the ceiling measured concentration of the anti-bacterial pharmaceutical.
(§5) c. Measuring method: micro-dilution method. […]
(§6) The bacteria to be tested and standard bacteria were prepared using the same method as above. […] 0.12 mg/L, and the final inoculation quantity was about […] or 5×10^6 bacteria in each well. […]

IL-6 = assay: Anti-inflammatory test in KB cells, LUMINEX, IL-6; assay type: cell-based, human; conditions: KB cell supernatant, the larger the value, the stronger the anti-inflammatory ability
Method: (§7) Anti-inflammatory activity was assessed using the KB cell (the epidermis cancer cell in human oral cavity). During the experiment, the KB cell inoculated in the cultivating plate was treated with or without positive control or Mulberrofuran G. After the treatment, the supernatant of the cultivating medium was collected and stored in −80° C. refrigerator. Inflammation was assessed by measuring several inflammation markers: Prostaglandin E2 (PGE2) in the supernatant was detected by Enzyme-linked immunsorbent assay, and LUMINEX™ multifunctional liquid-phase chip analysis system was used for the detection of granulocyte monocyte colony stimulating factor (GM-CSF), tumor necrosis factor-alpha (TNF-α), and interleukins 1-beta and 6 ([…] and IL-6).
(§8) LUMINEX™ multifunctional liquid-phase chip analyses of GM-CSF, TNF-α, IL-1 and IL-6: The 96-well plate was enclosed with enclosing liquid for 30 minutes. Fluorescent microspheres were added into the 96-well plate after dilution. The standard and the samples to be measured were added, and incubated overnight at 4° C. The next day, the supernatant was discarded and 50 μL GM-CSF, TNF-α, IL-1β and IL-6 antibodies were added to each well. After being rinsed for 4 times, the 96-well plate was placed in a shaking table, which was in ambient temperature, to keep the plate away from light for one hour. […]

IL-1β = assay: Anti-inflammatory test in KB cells, LUMINEX, IL-1β; assay type: cell-based, human; conditions: KB cell supernatant, the larger the value, the stronger the anti-inflammatory ability
Method: as §7, §8

[2] = system: Fusobacterium nucleatum subsp. Polymorphum (F. n) ATCC 10953; assay: Micro-dilution MIC test, F. n; assay type: cell-based; conditions: 37 °C, 18-24 h, unit not given, method gives concentrations in mg/L (ppm)
Method: as §1, §2, §3, §4, §5, §6

[3] = system: Actinobacilus actinomycetemcomitans (A. a) ATCC 43717; assay: Micro-dilution MIC test, A. a; assay type: cell-based; conditions: 37 °C, 18-24 h, unit not given, method gives concentrations in mg/L (ppm)
Method: as §1, §2, §3, §4, §5, §6

[4] = system: Porphyromonas gingivalis (P. g) ATCC 33277; assay: Micro-dilution MIC test, P. g; assay type: cell-based; conditions: anaerobic, 37 °C, 18-24 h, unit not given, method gives concentrations in mg/L (ppm)
Method: as §1, §2, §3, §4, §5, §6

[5] = system: Actinomyces viscosus (A. v) ATCC 27044; assay: Micro-dilution MIC test, A. v; assay type: cell-based; conditions: 37 °C, 18-24 h, unit not given, method gives concentrations in mg/L (ppm)
Method: as §1, §2, §3, §4, §5, §6

[6] = system: Streptococcus mutans (S. m) ATCC 25175; assay: Micro-dilution MIC test, S. m; assay type: cell-based; conditions: 37 °C, 18-24 h, unit not given, method gives concentrations in mg/L (ppm)
Method: as §1, §2, §3, §4, §5, §6

TNF-α = assay: Anti-inflammatory test in KB cells, LUMINEX, TNF-α; assay type: cell-based, human; conditions: KB cell supernatant, the larger the value, the stronger the anti-inflammatory ability
Method: as §7, §8

GM-CSF = assay: Anti-inflammatory test in KB cells, LUMINEX, GM-CSF; assay type: cell-based, human; conditions: KB cell supernatant, the larger the value, the stronger the anti-inflammatory ability
Method: as §7, §8

[7] = system: Streptococcus sanguis (S. sa) ATCC 10556; assay: Micro-dilution MIC test, S. sa; assay type: cell-based; conditions: 37 °C, 18-24 h, unit not given, method gives concentrations in mg/L (ppm)
Method: as §1, §2, §3, §4, §5, §6

Structure (SMILES) | MIC, A. n ATCC 12104 [1] | anti-inflammatory effect, IL-6 (IL-6) | anti-inflammatory effect, IL-1β (IL-1β) | MIC, F. n ATCC 10953 [2] | MIC, A. a ATCC 43717 [3] | MIC, P. g ATCC 33277 [4] | MIC, A. v ATCC 27044 [5] | MIC, S. m ATCC 25175 [6] | anti-inflammatory effect, TNF-α (TNF-α) | anti-inflammatory effect, GM-CSF (GM-CSF) | MIC, S. sa ATCC 10556 [7]
CC1=C[C@H]2c3c(O)cc(-c4cc5ccc(O)cc5o4)cc3O[C@@]3(c4ccc(O)cc4O)Oc4cc(O)ccc4[C@H](C1)[C@@H]23 [Mulberrofuran G, 3aH-Benzo[3,4][2]benzopyrano[1,8-bc][1]-benzopyran-4,11-diol, 8a-(2,4-dihydroxphenyl)-1,8a,13b,13c-tetrahydro-6-(6-hydroxy-2-benzofuranyl)-2-methyl-, (3a,S,8aS,13bS,13cR)-] | 1.9 | 48% | 18% | 7.8 | 2.4 | 1.9 | 2.4 | 3.9 | 90% | 8% | 7.8
Oc1cc(Cl)ccc1Oc1ccc(Cl)cc1Cl [Triclosan, reference compound] | – | 31% | 7% | – | – | – | – | – | 81% | – | –
